# Publication PMC9620171 (Journal of Medicinal Chemistry, 2022)
# Where two headings read alike, the source gives them in different places.
# Columns and labels:
# HSV [1] = conditions: lead optimization; ref 11 and data on file; cited from earlier work
# [2] = lead optimization; ref 11 and data on file; cited from earlier work
# HSV-1 [3] = assay: Murine lethal challenge assay, intranasal HSV-1 infection; assay type: in vivo, mice; conditions: using molar doses
# HSV-2 [4] = assay: Murine lethal challenge assay, intranasal HSV-2 infection; assay type: in vivo, mice; conditions: using molar doses
# [5] = Pharmacokinetics after oral administration, rat; conditions: in vivo, 1 mg/kg, elimination half-life in rodents
# [6] = Pharmacokinetics after oral administration, dog; conditions: in vivo, 1 mg/kg
# [7] = Pharmacokinetics after oral administration, human; conditions: in vivo, 100 mg
# [8] = Routes of elimination of pritelivir in humans; assay type: in vivo; conditions: yields pyridinyl phenyl acetic acid and amino thiazole sulfonamide
# [9] = system: two human helicases, one nuclear and one located in the mitochondria; assay: Inhibition of human helicases; assay type: biochemical; conditions: one nuclear and one mitochondrial human helicase
# [10] = system: liver, heart muscle, kidney, macrophages, monocytes, T lymphocytes, fibroblasts, and neuronal cells; assay: Cytotoxicity on a panel of different cell types; assay type: cell-based
# [11] = system: bacterial reversion and mammalian cell chromosome aberration; assay: Genotoxicity, standard ICH battery; assay type: cell-based; conditions: in vitro; free base and mesylate monohydrate examined
# HSV [12] = conditions: rats; three daily oral doses, pritelivir 0.5 and 2 mg/kg, valacyclovir 45 and 135 mg/kg; cited from earlier work
# HSV-1 [13] = conditions: cited from earlier work; for effectiveness on lesion score and virus shedding: wild-type HSV-1, postinfection day 1 to day 4
# HSV-1 [14] = conditions: oral, start 72 h postinfection; cited from earlier work
# HSV-2 [15] = conditions: 10 and 30 mg/kg twice a day, start 72 h postinfection; cited from earlier work
# HSV-2 [16] = conditions: cited from earlier work; for recurrence rate per 10-day period: early treatment days 0–4, follow-up up to 85 days, control 1.0; for time to return to a disease score of zero: control 14 days
# HSV-2 [17] = conditions: day 3 to day 7 postinfection, cited from earlier work
# HSV-1 [18] = conditions: 24 h after heat stress; two oral doses of 50 mg/kg; controls 1.4 × 10^6; cited from earlier work
# HSV-1 [19] = conditions: cited from earlier work
# HSV [20] = conditions: pritelivir-resistant, plaque-purified virus, in vitro; cited from earlier work
# other herpesviruses = conditions: cited from earlier work
# [21] = system: acyclovir resistant, mucocutaneous HSV infection; conditions: preliminary data, cited from earlier work
# HSV [22] = conditions: four times daily swabbing; cited from earlier work
# [23] = Physicochemical properties of pritelivir mesylate monohydrate; conditions: 50 for the classification system
# [24] = compared with other salts and salt/hydrates; cited from earlier work
# [25] = after administration of its prodrug valacyclovir in experimental animals; cited from earlier work
# [26] = cited from earlier work
smiles,measurement,setting,value
CNS(=O)(=O)c1sc(N(C)C(=O)Nc2ccc(-c3ccccc3)cc2)nc1C [Compound 3],in vivo activity / efficacy,HSV [1],superior in vivo efficacy than valacyclovir
Cc1nc(N(C)C(=O)Cc2ccc(-c3ccccc3)cc2)sc1S(N)(=O)=O [Compound 9],in vivo activity / efficacy,HSV [1],high in vitro and in vivo activity
same,solubility,[2],solubility remained a challenging issue
Cc1nc(N(C)C(=O)Cc2ccc(-n3cccn3)cc2)sc1S(N)(=O)=O [Compound 13],solubility,[2],improved solubility
Cc1nc(N(C)C(=O)Cc2ccc(-c3c(C)noc3C)cc2)sc1S(N)(=O)=O [Compound 14],solubility,[2],improved solubility
Cc1nc(N(C)C(=O)Cc2ccc(-c3cccnc3)cc2)sc1S(N)(=O)=O [Compound 15],solubility,[2],less soluble
"Cc1nc(N(C)C(=O)Cc2ccc(-c3ccccn3)cc2)sc1S(N)(=O)=O [Compound 16, pritelivir]",potency factor vs ganciclovir,HSV-1 [3],8 fold
same,potency factor vs ganciclovir,HSV-2 [4],3 fold
same,half-life,[5],≥ 5 h
same,half-life,[6],≥ 22 h
same,half-life,[7],60 to 70 h
same,share of elimination by nonenzymatic hydrolysis,[8],more than 50%
same,inhibition of human helicases,[9],Neither of these enzymes was inhibited
same,cytotoxicity,[10],lack of cytotoxicity
same,genotoxic potential,[11],nongenotoxic
same,in vivo activity / efficacy,HSV [1],excellent in vivo activity
same,efficacy compared with valacyclovir,HSV [12],superior efficacy
same,efficacy against HSV-1 mutant without wild-type mixture,"HSV-1 [13]; mutant alone, even at 60 mg/kg",practically ineffective
same,outcome of high-dose extended treatment,"HSV-1 [13]; pritelivir-resistant HSV-1 strain, 60 mg/kg for 8 days",prevented mortality and weight loss
same,influence on lesion score and virus shedding,"HSV-1 [13]; pritelivir-resistant HSV-1 strain, oral 10 mg/kg, day 1 to day 4",only marginal
same,effectiveness on lesion score and virus shedding,HSV-1 [13]; oral 5 mg/kg,largely
same,effectiveness on lesion score and virus shedding,HSV-1 [13]; oral 10 mg/kg,fully
same,b.i.d. dose at which 3-week mortality was already decreased,HSV-1 [14],0.3 mg/kg
same,3-week mortality,HSV-2 [15],no mortality
same,recurrence rate per 10-day period,HSV-2 [16]; 20 mg/kg b.i.d.,0.4
same,recurrence rate per 10-day period,HSV-2 [16]; 30 mg/kg b.i.d.,0.3
same,decrease of viral shedding compared to controls,"HSV-2 [16]; day 2 postinfection, vaginal swabs, 20 mg/kg b.i.d.",3 orders of magnitude
same,viral load in sacral dorsal root ganglia,"HSV-2 [16]; days 7, 25 and 85 postinfection, vs valacyclovir and control groups",considerably lower
same,time to return to a disease score of zero,"HSV-2 [16]; oral 20 mg/kg b.i.d., day 4 to day 14 postinfection",7 days
same,recurrence of lesion score after treatment,HSV-2 [17]; oral 15 or 60 mg/kg t.i.d.,no such recurrence was observed
same,mean viral genome copy number in trigeminal ganglia,HSV-1 [18],2.4 × 10^2
same,EC50,"HSV-1 [19]; read-out: in vitro EC50, wild-type HSV-1, wild-type",30 nM
same,higher in vitro ED50 of pritelivir-resistant HSV-1 strain,HSV-1 [19]; resistant strain vs wild-type,27 fold
same,frequency of resistant HSV mutants,HSV [20],0.5 to 4.5 × 10^–6
same,activity against other herpesviruses,other herpesviruses,only weak (if any) activity
same,solubility,[2],much better solubility
same,subjects whose lesions improved but did not heal completely,[21]; of the 23 subjects treated,4 subjects
same,tolerability,[21],well tolerated without significant adverse effects
same,efficacy vs valacyclovir in viral shedding rate and days with lesions,HSV [22],superior efficacy vs valacyclovir
CS(=O)(=O)O.Cc1nc(N(C)C(=O)Cc2ccc(-c3ccccn3)cc2)sc1S(N)(=O)=O.O [Pritelivir mesylate monohydrate],BCS class,[23],BCS class 2
same,stability under forced degradation conditions,[24],highest stability
Nc1nc2c(ncn2COCCO)c(=O)[nH]1 [acyclovir],acyclovir bioavailability,[25],58–84%
Nc1nc2c(ncn2CCC(CO)CO)c(=O)[nH]1 [penciclovir],half-life of penciclovir,[26]; after dosing with the prodrug famciclovir,2.0 to 2.5 h
same,bioavailability,"[26]; human, penciclovir via famciclovir",60–77%
"CC(C)[C@H](N)C(=O)OCCOCn1cnc2c(=O)nc(N)[nH]c21 [valacyclovir, reference compound]",recurrence rate per 10-day period,HSV-2 [16]; 100 mg/kg t.i.d. or 150 mg/kg b.i.d.,0.9
same,time to return to a disease score of zero,"HSV-2 [16]; 150 mg/kg b.i.d., delayed treatment",12 days
same,effect on viral shedding,"HSV-2 [16]; valacyclovir 150 mg/kg b.i.d., vaginal swabs",no discernible effect
same,mortality,HSV-2 [17]; oral 60 mg/kg t.i.d. (lower dose level),100%
